Measured values published in paper PMC6008465 (British Journal of Cancer, 2018).
Marks after values point to notes of the source that are not given here.

Columns and labels:
[1] = Part A pharmacokinetics (plasma and urine, noncompartmental analysis); format: in vivo, human
Method: In Part A, blood was collected on Cycle 1, Days 1 and 15 at specified intervals prior to, during, and postinfusion (5 min–8 h), and on Days 2, 3, 16, and 17 (24 and 48 h postinfusion). Urine was collected on Cycle 1, Day 1 preinfusion, at 0–8 h, and 8–24 h. In Part B, blood was collected on Cycle 1, Day 1, prior to, during, and at 1–24 h postinfusion. Pharmacokinetic parameters were calculated using noncompartmental analysis.

MEK1 = details: preclinical models; cited from earlier work
[2] = Cycle 1 Day 1, 160 mg/m^2 (n=3)
[3] = Cycle 1 Day 1, 320 mg/m^2 (n=7)
[4] = Cycle 1 Day 1, 400 mg/m^2 (n=1)
[5] = Cycle 1 Day 1, 480 mg/m^2 (n=4)
[6] = Cycle 1 Day 15, 20 mg/m^2 (n=3)
[7] = Cycle 1 Day 15, 40 mg/m^2 (n=3)
[8] = Cycle 1 Day 15, 80 mg/m^2 (n=3)
[9] = Cycle 1 Day 15, 160 mg/m^2 (n=3)
[10] = Cycle 1 Day 15, 320 mg/m^2 (n=6)
[11] = Cycle 1 Day 15, 400 mg/m^2 (n=1)
[12] = Cycle 1 Day 15, 480 mg/m^2 (n=4)

## CCNc1cc(O)c2c(c1)/C=C/C[C@H](O)[C@H](O)C(=O)/C=C\[C@@H](C)[C@H](C)OC2=O [E6201, (3S,4R,5Z,8S,9S,11E)-14-(ethylamino)-8,9,16-trihydroxy-3,4-dimethyl-3,4,9,19-tetrahydro-1H-2-benzoxacyclotetradecine-1,7 (8H)-dione]
[1]; 24-hour collection interval
  Fraction of E6201 excreted in the urine: ≤ 0.21%
[1]; Cycle 1 Day 1, 20 mg/m^2 (n=4)
  AUC(0-t), mean (%CV): 1650 (218) ng·h/mL
  CLR (renal clearance), mean (%CV): 10.0 (188) mL/h
  Cmax, mean (%CV): 552 (50) ng/mL
  Tmax, median (range): 0.5 (0.25–0.5) h
  fe (fraction of drug excreted in urine), mean (%CV): 0.0125 (42) %
[1]; Cycle 1 Day 1, 20 mg/m^2, n=2
  t½, mean: 1.96^b (--) h
[1]; Cycle 1 Day 1, 20 mg/m^2, n=2, %CV 2
  CL, mean (%CV): 110^b (2) L/h
[1]; Cycle 1 Day 1, 20 mg/m^2, n=2, %CV 28
  Vss, mean (%CV): 135^b (28) L
[1]; Cycle 1 Day 1, 40 mg/m^2 (n=3)
  AUC(0-t), mean (%CV): 2410 (201) ng·h/mL
  CLR (renal clearance), mean (%CV): 1.65 (--) mL/h
  Cmax, mean (%CV): 870 (70) ng/mL
  Tmax, median (range): 0.5 (0.5–0.5) h
  fe (fraction of drug excreted in urine), mean (%CV): 0 (--) %
[1]; Cycle 1 Day 1, 40 mg/m^2, n=2
  t½, mean: 2.70^b (--) h
[1]; Cycle 1 Day 1, 40 mg/m^2, n=2, %CV 21
  Vss, mean (%CV): 164^b (21) L
[1]; Cycle 1 Day 1, 40 mg/m^2, n=2, %CV 25
  CL, mean (%CV): 103^b (25) L/h
[1]; Cycle 1 Day 1, 80 mg/m^2 (n=3)
  AUC(0-t), mean (%CV): 2520 (63) ng·h/mL
  CL, mean (%CV): 68.7 (60) L/h
  CLR (renal clearance), mean (%CV): 28.9 (54) mL/h
  Cmax, mean (%CV): 3350 (149) ng/mL
  Tmax, median (range): 0.5 (0.25–0.5) h
  Vss, mean (%CV): 135 (100) L
  fe (fraction of drug excreted in urine), mean (%CV): 0.04 (26) %
  t½, mean: 2.79 (--) h
[1]; [2]
  AUC(0-t), mean (%CV): 2770 (36) ng·h/mL
  CL, mean (%CV): 119 (50) L/h
  CLR (renal clearance), mean (%CV): 89.7 (299) mL/h
  Cmax, mean (%CV): 2740 (51) ng/mL
  Tmax, median (range): 0.5 (0.25–0.5) h
  Vss, mean (%CV): 216 (55) L
  fe (fraction of drug excreted in urine), mean (%CV): 0.0567 (186) %
  t½, mean: 3.98 (--) h
[1]; [3]
  AUC(0-t), mean (%CV): 10400 (26) ng·h/mL
  CL, mean (%CV): 57.2 (22) L/h
  CLR (renal clearance), mean (%CV): 60.0 (659) mL/h
  Cmax, mean (%CV): 14800 (73) ng/mL
  Tmax, median (range): 0.25 (0.25–0.5) h
  Vss, mean (%CV): 89.1 (36) L
  fe (fraction of drug excreted in urine), mean (%CV): 0.109 (56) %
  t½, mean: 4.00 (--) h
[1]; [4]
  AUC(0-t), mean (%CV): 13500 (--) ng·h/mL
  CL, mean (%CV): 52.8 (--) L/h
  CLR (renal clearance), mean (%CV): 111 (--) mL/h
  Cmax, mean (%CV): 19500 (--) ng/mL
  Tmax, median (range): 0.25 (0.25–0.25) h
  Vss, mean (%CV): 80.1 (---) L
  fe (fraction of drug excreted in urine), mean (%CV): 0.21 (--) %
  t½, mean: 6.50 (--) h
[1]; [5]
  AUC(0-t), mean (%CV): 10200 (56) ng·h/mL
  CL, mean (%CV): 101 (44) L/h
  CLR (renal clearance), mean (%CV): 137 (128) mL/h
  Cmax, mean (%CV): 8070 (55) ng/mL
  Tmax, median (range): 0.375 (0.25–0.5) h
  Vss, mean (%CV): 275 (42) L
  fe (fraction of drug excreted in urine), mean (%CV): 0.143 (96) %
  t½, mean: 5.97 (--) h
[1]; [6]
  AUC(0-t), mean (%CV): 1420 (250) ng·h/mL
  Cmax, mean (%CV): 895 (228) ng/mL
  Tmax, median (range): 0.5 (0.25–0.5) h
[1]; Cycle 1 Day 15, 20 mg/m^2, n=1
  CL, mean (%CV): 184^c (--) L/h
  Vss, mean (%CV): 324^ c (--) L
  t½, mean: 1.58^c (--) h
[1]; [7]
  AUC(0-t), mean (%CV): 2090 (169) ng·h/mL
  Cmax, mean (%CV): 767 (78) ng/mL
  Tmax, median (range): 0.5 (0.25–0.5) h
[1]; Cycle 1 Day 15, 40 mg/m^2, n=2
  t½, mean: 1.88^ b (--) h
[1]; Cycle 1 Day 15, 40 mg/m^2, n=2, %CV 27
  Vss, mean (%CV): 115^b (27) L
[1]; Cycle 1 Day 15, 40 mg/m^2, n=2, %CV 47
  CL, mean (%CV): 91^b (47) L/h
[1]; [8]
  AUC(0-t), mean (%CV): 2540 (66) ng·h/mL
  Cmax, mean (%CV): 2590 (154) ng/mL
  Tmax, median (range): 0.25 (0.25–0.5) h
  t½, mean: 5.55 (--) h
[1]; Cycle 1 Day 15, 80 mg/m^2, n=2, %CV 67
  CL, mean (%CV): 76.2^ b (67) L/h
[1]; Cycle 1 Day 15, 80 mg/m^2, n=2, %CV 146
  Vss, mean (%CV): 148^ b (146) L
[1]; [9]
  AUC(0-t), mean (%CV): 4300 (32) ng·h/mL
  CL, mean (%CV): 71.2 (18) L/h
  Cmax, mean (%CV): 5430 (120) ng/mL
  Tmax, median (range): 0.25 (0.25–0.5) h
  Vss, mean (%CV): 110 (74) L
  t½, mean: 4.20 (--) h
[1]; [10]
  AUC(0-t), mean (%CV): 11100 (13) ng·h/mL
  CL, mean (%CV): 49.8 (18) L/h
  Cmax, mean (%CV): 18000 (64) ng/mL
  Tmax, median (range): 0.25 (0.25–0.5) h
  Vss, mean (%CV): 111 (69) L
  t½, mean: 6.83 (--) h
[1]; [11]
  AUC(0-t), mean (%CV): 10500 (--) ng·h/mL
  Cmax, mean (%CV): 21600 (--) ng/mL
  Tmax, median (range): 0.25 (0.25–0.25) h
[1]; [12]
  AUC(0-t), mean (%CV): 11300 (73) ng·h/mL
  CL, mean (%CV): 82 (38) L/h
  Cmax, mean (%CV): 12200 (88) ng/mL
  Tmax, median (range): 0.375 (0.25–0.5) h
  Vss, mean (%CV): 217 (84) L
  t½, mean: 4.78 (--) h
[1]; Day 15 vs Day 1, once-weekly dosing
  Accumulation on multiple dosing: Lack of E6201 accumulation
[1]; Part A
  Mean clearance (CL), range over dose groups: 49.8 to 184 L/h
  Renal clearance (CLR), range over dose groups: 1.65 to 137 mL/h
[1]; Part A, 30-min IV infusion
  Time of peak E6201 concentration (mid-to-end of infusion): 0.25 to 0.5 h
MEK1
  Time after dosing at which MEK1 inhibition occurred: 8 h
  Time postdose for which MEK1 inhibition was sustained: 72 h
